The record followed here is US20240409585A1, “MACROCYCLIC IMMUNOMODULATORS” (priority 2021, published 2024).

Numbered stars: 1 amine (or outer) side, 2 acyl side, 3 side chain; on linkers, the order of the positions; unused ones are H or OH. Bridge positions count the residues as written; N and C are the ends. Square brackets hold non-standard residues; d marks the D form. Peptide text beside a SMILES is read from it. * marks the point of attachment. ξ: configuration not given here. Tyr(3-NO2) = N[C@@H](Cc1ccc(O)c([N+](=O)[O-])c1)C(=O)O; Phe(3-CF3) = N[C@@H](Cc1cccc(C(F)(F)F)c1)C(=O)O; Ala(morpholin-4-yl) = N[C@@H](CN1CCOCC1)C(=O)O; Phe(4-COOH) = N[C@@H](Cc1ccc(C(=O)O)cc1)C(=O)O; X16 = O=C([C@H](Cc1ccc2cnccc2c1)N[*:1])[*:2]; Bip = N[C@@H](Cc1ccc(-c2ccccc2)cc1)C(=O)O; Phe(3-CN) = N#Cc1cccc(C[C@H](N)C(=O)O)c1; Phe(3-Cl) = N[C@@H](Cc1cccc(Cl)c1)C(=O)O; Phe(3-OMe) = COc1cccc(C[C@H](N)C(=O)O)c1; Phe(3-F) = N[C@@H](Cc1cccc(F)c1)C(=O)O; Phe(3-Me) = Cc1cccc(C[C@H](N)C(=O)O)c1; 3Pal = N[C@@H](Cc1cccnc1)C(=O)O; 4Pal = N[C@@H](Cc1ccncc1)C(=O)O; Cha = N[C@@H](CC1CCCCC1)C(=O)O; Cit = NC(=O)NCCC[C@H](N)C(=O)O; Ile(3ξ) = CCC(C)[C@H](N)C(=O)O; Thr(3ξ) = CC(O)[C@H](N)C(=O)O; Carboxymethyl = O=C(O)C*; NMeA = CN[C@@H](C)C(=O)O; Orn = NCCC[C@H](N)C(=O)O; Dab = NCC[C@H](N)C(=O)O

The target of this assay is T1, PE-labeled human PD-L1-Ig binding to Jurkat cell line over-expressing human PD-1 (Jurkat-PD-1) (Homo sapiens, UniProt Q15116).
T1 construct: expressed in transfected cells; host or cells: Jurkat
T1 sequence (Q15116 25-288): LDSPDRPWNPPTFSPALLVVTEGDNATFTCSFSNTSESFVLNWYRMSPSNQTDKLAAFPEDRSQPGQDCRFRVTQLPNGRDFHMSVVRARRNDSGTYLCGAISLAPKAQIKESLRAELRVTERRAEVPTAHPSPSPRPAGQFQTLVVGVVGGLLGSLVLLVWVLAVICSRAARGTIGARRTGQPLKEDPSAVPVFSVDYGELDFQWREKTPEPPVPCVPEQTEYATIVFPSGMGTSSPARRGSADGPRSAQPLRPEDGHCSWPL
As to the kind of experiment: Jurkat-PD-1 Cell Binding High-Content Screening Assay (CBA): Method 1. The conditions noted are these: Jurkat-hPD-1 cells, PE-labeled PD-L1-Ig 20 nM final; read-out: Jurkat HPDL1 PD1 IC50 (uM) (Method 1).
By IC50 is commonly meant the concentration needed to halve the response being measured. Turning to `CC(C)C[C@H]1NC(=O)[C@H](C)N(C)C(=O)[C@H](CCC(N)=O)NC(=O)[C@H](Cc2ccc(-c3ccccc3)cc2)NC(=O)[C@H](Cc2ccc(C(=O)O)cc2)NC(=O)[C@H](Cc2cccc(C(F)(F)F)c2)NC(=O)[C@H](CC(N)=O)NC(=O)[C@H](Cc2ccc(C(=O)O)cc2)NC(=O)[C@H](CN2CCOCC2)NC(=O)CSC[C@@H](C(=O)N[C@@H](CCN)C(N)=O)NC(=O)[C@H](CCCN)NC(=O)[C@H](C(C)C)NC(=O)[C@H](CC2CCCCC2)NC(=O)[C@H](CCN)NC1=O` [Example 2279] ({CH2CO}-[Ala(morpholin-4-yl)][Phe(4-COOH)]N[Phe(3-CF3)][Phe(4-COOH)][Bip]Q[NMeA][dL][Dab][Cha]V[Orn]C[Dab]-NH2; thioether N-14), the IC50 is 0.11 µM.

Turning to `CC(C)C[C@@H]1NC(=O)[C@H](CCCNC(=N)N)NC(=O)[C@@H](CC(C)C)NC(=O)[C@H](C)N(C)C(=O)[C@H](CCCNC(=N)N)NC(=O)[C@H](Cc2ccc(-c3ccccc3)cc2)NC(=O)[C@H](C(C)C)NC(=O)[C@H](Cc2cccc(F)c2)NC(=O)[C@H](CC(=O)O)NC(=O)[C@H](Cc2ccc(O)cc2)NC(=O)[C@H](CC(N)=O)NC(=O)CSC[C@@H](C(=O)N[C@@H](C)C(N)=O)NC(=O)[C@H]([C@@H](C)O)NC(=O)[C@H](C(C)C)NC1=O` [Compound 1199] ({CH2CO}-NYD[Phe(3-F)]V[Bip]R[NMeA][dL]RLVTCA-NH2; thioether N-14), the IC50 turned out to be 0.45 µM.

For the compound `CC(C)C[C@@H]1NC(=O)[C@H](Cc2c[nH]c3ccccc23)NC(=O)[C@H](CC(=O)O)NC(=O)[C@H](Cc2ccc(O)cc2)NC(=O)[C@H](Cc2ccccc2)NC(=O)CSC[C@@H](C(=O)NCC(N)=O)NC(=O)[C@H](CO)NC(=O)[C@H](C(C)C)NC(=O)[C@H](CC(C)C)NC(=O)[C@H](CC(=O)O)NC(=O)[C@@H](CC(=O)O)NC(=O)[C@H](C)N(C)C(=O)[C@H](C(C)C)NC(=O)[C@H](Cc2ccc(-c3ccccc3)cc2)NC1=O` [Compound 1829] ({CH2CO}-FYDWL[Bip]V[NMeA][dD]DLVSCG-NH2; thioether N-14), the IC50 came out at 0.85 µM.

As for `Cc1cccc(C[C@@H]2NC(=O)[C@H](Cc3cccnc3)NC(=O)CSC[C@@H](C(=O)NCC(N)=O)NC(=O)[C@H](CO)NC(=O)[C@H](C(C)C)NC(=O)[C@H](CC(C)C)NC(=O)[C@H](CC(N)=O)NC(=O)[C@@H](CC(C)C)NC(=O)[C@H](C)N(C)C(=O)[C@H](C(C)C)NC(=O)[C@H](Cc3ccc(-c4ccccc4)cc3)NC(=O)[C@H](CC(C)C)NC(=O)[C@H](Cc3c[nH]c4ccccc34)NC(=O)[C@H](CC(=O)O)NC2=O)c1` [Compound 1520] ({CH2CO}-[3Pal][Phe(3-Me)]DWL[Bip]V[NMeA][dL]NLVSCG-NH2; thioether N-14), the IC50 is 0.01 µM.

On to `CC(C)C[C@@H]1NC(=O)[C@H](CCCNC(=N)N)NC(=O)[C@@H](C)NC(=O)[C@H](C)N(C)C(=O)[C@H](C(C)C)NC(=O)[C@H](Cc2ccc(-c3ccccc3)cc2)NC(=O)[C@H](C(C)C)NC(=O)[C@H](Cc2c[nH]c3ccccc23)NC(=O)[C@H](CC(=O)O)NC(=O)[C@H](Cc2ccc(O)cc2)NC(=O)[C@H](Cc2ccccc2)NC(=O)CSC[C@@H](C(=O)N[C@@H](C)C(N)=O)NC(=O)[C@H](CO)NC(=O)[C@H](C(C)C)NC1=O` [Compound 1779] ({CH2CO}-FYDWV[Bip]V[NMeA][dA]RLVSCA-NH2; thioether N-14), for which the IC50 came to 0.07 µM.

In the case of `Cc1cccc(C[C@@H]2NC(=O)[C@H](CC(=O)O)NC(=O)[C@H](Cc3ccc(OCC(=O)O)cc3)NC(=O)[C@H](CCCNC(=N)N)NC(=O)CSC[C@@H](C(N)=O)NC(=O)[C@H]([C@@H](C)O)NC(=O)[C@H](C(C)C)NC(=O)[C@H](CC3CCCCC3)NC(=O)[C@H](CCN)NC(=O)[C@@H](CC(C)C)NC(=O)[C@H](C)N(C)C(=O)[C@H](CCCN)NC(=O)[C@H](Cc3ccc(-c4ccccc4)cc3)NC(=O)[C@H](Cc3ccc(O)cc3)NC2=O)c1` [Compound 1868] ({CH2CO}-RY(Carboxymethyl)D[Phe(3-Me)]Y[Bip][Orn][NMeA][dL][Dab][Cha]VTC-NH2; thioether N-14), the IC50 worked out at 0.17 µM.

On to `CC(C)C[C@@H]1NC(=O)[C@H](CCCN)NC(=O)[C@@H](CC(C)C)NC(=O)[C@H](C)N(C)C(=O)[C@H](CCC(=O)O)NC(=O)[C@H](Cc2ccc(-c3ccccc3)cc2)NC(=O)[C@H](C(C)C)NC(=O)[C@H](Cc2c[nH]c3ccccc23)NC(=O)[C@H](CC(=O)O)NC(=O)[C@H](Cc2ccc(O)cc2)NC(=O)[C@H](CC(N)=O)NC(=O)CSC[C@@H](C(=O)N[C@@H](C)C(N)=O)NC(=O)[C@H](CO)NC(=O)[C@H](C(C)C)NC1=O` [Compound 1240] ({CH2CO}-NYDWV[Bip]E[NMeA][dL][Orn]LVSCA-NH2; thioether N-14), for which the IC50 turned out to be 0.04 µM.

`CC(C)C[C@@H]1NC(=O)[C@H](CCCN)NC(=O)[C@@H](CC(C)C)NC(=O)[C@H](C)N(C)C(=O)[C@H](CCCNC(=N)N)NC(=O)[C@H](Cc2ccc(-c3ccccc3)cc2)NC(=O)[C@H](C(C)C)NC(=O)[C@H](Cc2c[nH]c3ccccc23)NC(=O)[C@H](CC(=O)O)NC(=O)[C@H](Cc2ccc(O)c([N+](=O)[O-])c2)NC(=O)[C@H](CC(N)=O)NC(=O)CSC[C@@H](C(=O)N[C@@H](C)C(N)=O)NC(=O)[C@H]([C@@H](C)O)NC(=O)[C@H](C(C)C)NC1=O` [Compound 1154] ({CH2CO}-N[Tyr(3-NO2)]DWV[Bip]R[NMeA][dL][Orn]LVTCA-NH2; thioether N-14): the IC50 was found to be 0.03 µM.

As for `CC(C)C[C@@H]1NC(=O)[C@H](CCN)NC(=O)[C@@H](CC(C)C)NC(=O)[C@H](C)N(C)C(=O)[C@H](CCCNC(N)=O)NC(=O)[C@H](Cc2ccc(-c3ccccc3)cc2)NC(=O)[C@H](C(C)C)NC(=O)[C@H](Cc2c[nH]c3ccccc23)NC(=O)[C@H](CC(=O)O)NC(=O)[C@H](Cc2ccc(O)cc2)NC(=O)[C@H](CCC(N)=O)NC(=O)CSC[C@@H](C(=O)N[C@@H](C)C(N)=O)NC(=O)[C@H]([C@@H](C)O)NC(=O)[C@H](C(C)C)NC1=O` [Compound 1357] ({CH2CO}-QYDWV[Bip][Cit][NMeA][dL][Dab]LVTCA-NH2; thioether N-14), the IC50 is 0.06 µM.

In the case of `COc1cccc(C[C@@H]2NC(=O)[C@H](CC(=O)O)NC(=O)[C@H](Cc3cccc(C#N)c3)NC(=O)[C@H](Cc3ccncc3)NC(=O)CSC[C@@H](C(=O)N[C@@H](C)C(N)=O)NC(=O)[C@@H](CO)NC(=O)[C@H](C(C)C)NC(=O)[C@H](CC(C)C)NC(=O)[C@H](CC(N)=O)NC(=O)[C@@H](C)NC(=O)[C@H](C)N(C)C(=O)[C@H](C(C)C)NC(=O)[C@H](Cc3ccc(-c4ccccc4)cc3)NC(=O)[C@@H](CC(C)C)NC2=O)c1` [Compound 1462] ({CH2CO}-[4Pal][Phe(3-CN)]D[Phe(3-OMe)][dL][Bip]V[NMeA][dA]NLV[dS]CA-NH2; thioether N-14), the IC50 is 0.01 µM.

Take `CC(C)C[C@@H]1NC(=O)[C@H](CC(N)=O)NC(=O)[C@@H](CC(C)C)NC(=O)[C@H](C)N(C)C(=O)[C@H](C(C)C)NC(=O)[C@H](Cc2ccc(-c3ccccc3)cc2)NC(=O)[C@H](CCN)NC(=O)[C@H](Cc2c[nH]c3ccccc23)NC(=O)[C@H](CC(=O)O)NC(=O)[C@H](Cc2ccc(O)cc2)NC(=O)[C@H](Cc2ccccc2)NC(=O)CSC[C@@H](C(=O)N[C@@H](C)C(N)=O)NC(=O)[C@H](CO)NC(=O)[C@H](CC(=O)O)NC1=O` [Compound 2026] ({CH2CO}-FYDW[Dab][Bip]V[NMeA][dL]NLDSCA-NH2; thioether N-14): the IC50 amounted to 0.12 µM.

For `CC(C)C[C@@H]1NC(=O)[C@H](CCN)NC(=O)[C@@H](CC(C)C)NC(=O)[C@H](C)N(C)C(=O)[C@H](C(C)C)NC(=O)[C@H](Cc2ccc(-c3ccccc3)cc2)NC(=O)[C@H](C(C)C)NC(=O)[C@H](Cc2cccc(Cl)c2)NC(=O)[C@H](CC(=O)O)NC(=O)[C@H](Cc2ccc(O)cc2)NC(=O)[C@H](CC(N)=O)NC(=O)CSC[C@@H](C(=O)N[C@@H](C)C(N)=O)NC(=O)[C@H]([C@@H](C)O)NC(=O)[C@H](C(C)C)NC1=O` [Compound 1265] ({CH2CO}-NYD[Phe(3-Cl)]V[Bip]V[NMeA][dL][Dab]LVTCA-NH2; thioether N-14), the IC50 was 0.01 µM.

In the case of `CCC(C)[C@@H]1NC(=O)[C@H](Cc2ccc(-c3ccccc3)cc2)NC(=O)[C@H](C(C)C)NC(=O)[C@H](Cc2c[nH]c3ccccc23)NC(=O)[C@H](CC(=O)O)NC(=O)[C@H](Cc2ccc(O)cc2)NC(=O)[C@H](Cc2ccc3cnccc3c2)NC(=O)CSC[C@@H](C(=O)N[C@@H](C)C(N)=O)NC(=O)[C@H](C(C)O)NC(=O)[C@H](C(C)C)NC(=O)[C@H](CC2CCCCC2)NC(=O)[C@H](CCN)NC(=O)[C@@H](CC(C)C)NC(=O)[C@H](C)N(C)C1=O` (stereo partly drawn) [Compound 2046] ({CH2CO}-[X16]YDWV[Bip][Ile(3ξ)][NMeA][dL][Dab][Cha]V[Thr(3ξ)]CA-NH2; thioether N-14), the IC50 was determined as 0.02 µM.

With `CCC(C)[C@@H]1NC(=O)[C@H](Cc2ccc(-c3ccccc3)cc2)NC(=O)[C@H](CC(C)C)NC(=O)[C@H](Cc2c[nH]c3ccccc23)NC(=O)[C@H](CC(=O)O)NC(=O)[C@H](Cc2ccc(C(=O)O)cc2)NC(=O)[C@H](Cc2ccc(OCC(=O)O)cc2)NC(=O)CSC[C@@H](C(=O)N[C@@H](CC(N)=O)C(N)=O)NC(=O)[C@H]([C@@H](C)O)NC(=O)[C@H](C(C)C)NC(=O)[C@H](CC2CCCCC2)NC(=O)[C@H](CCN)NC(=O)[C@@H](CC(C)C)NC(=O)[C@H](C)N(C)C1=O` (stereo partly drawn) [Compound 1919] ({CH2CO}-Y(Carboxymethyl)[Phe(4-COOH)]DWL[Bip][Ile(3ξ)][NMeA][dL][Dab][Cha]VTCN-NH2; thioether N-14), the half-maximal inhibitory concentration (IC50) is 0.03 µM.

As to `CC(C)C[C@@H]1NC(=O)[C@H](Cc2c[nH]c3ccccc23)NC(=O)[C@H](CC(=O)O)NC(=O)[C@H](Cc2ccc(OCC(=O)O)cc2)NC(=O)[C@H](Cc2ccc(OCC(=O)O)cc2)NC(=O)CSC[C@@H](C(=O)NCC(N)=O)NC(=O)[C@H](CO)NC(=O)[C@H](C(C)C)NC(=O)[C@H](CC(C)C)NC(=O)[C@H](CC(N)=O)NC(=O)[C@@H](CC(C)C)NC(=O)[C@H](C)N(C)C(=O)[C@H](C(C)C)NC(=O)[C@H](Cc2ccc(-c3ccccc3)cc2)NC1=O` [Compound 1550] ({CH2CO}-Y(Carboxymethyl)Y(Carboxymethyl)DWL[Bip]V[NMeA][dL]NLVSCG-NH2; thioether N-14), the IC50 was found to be 0.01 µM.
